Measured values reported in ChEMBL document CHEMBL1201862, “PubChem BioAssay data set” (2004).
Active and inactive are the calls of the source.

Experiments:
Cytochrome P450 3A4 = Cytochrome P450 3A4 (Homo sapiens, UniProt P08684);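 also: CYP3A4 tested as one member of a cytochrome P450 panel screen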
Cytochrome P450 1A2 = biological target: T1, Cytochrome P450 1A2 (Homo sapiens, UniProt P05177);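 also: PubChem cytochrome P450 panel assay, CYP1A2 panel member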
T1 sequence (P05177 whole entry): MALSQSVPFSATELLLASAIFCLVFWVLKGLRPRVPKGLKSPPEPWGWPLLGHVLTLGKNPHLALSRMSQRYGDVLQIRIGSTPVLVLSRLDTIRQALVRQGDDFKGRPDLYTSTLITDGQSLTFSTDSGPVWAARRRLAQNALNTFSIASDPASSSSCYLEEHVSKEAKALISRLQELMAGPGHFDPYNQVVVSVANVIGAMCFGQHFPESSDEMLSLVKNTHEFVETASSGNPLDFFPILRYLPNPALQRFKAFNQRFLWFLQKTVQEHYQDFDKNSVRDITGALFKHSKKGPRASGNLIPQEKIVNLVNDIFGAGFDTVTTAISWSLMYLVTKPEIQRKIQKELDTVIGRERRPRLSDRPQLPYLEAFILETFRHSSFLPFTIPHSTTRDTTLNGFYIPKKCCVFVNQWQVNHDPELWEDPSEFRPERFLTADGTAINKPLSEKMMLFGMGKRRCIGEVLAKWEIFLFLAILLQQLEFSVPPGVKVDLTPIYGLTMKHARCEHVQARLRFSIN

Cytochrome P450 2C19 = Cytochrome P450 2C19 (Homo sapiens, UniProt P33261); assay: Cytochrome panel assay with activity outcomes. Panel member name: p450-cyp2c19 Compounds with AC50 equal or less than 10 uM are considered active; assay type: functional
Protein RecA = biological target: T2, Protein RecA (Mycobacterium tuberculosis, UniProt P9WHJ3); assay: Fluorescence Cell-Free Homogeneous Dose Retest to Identify Inhibitors of RecA-Intein Splicing Activity. [Related pubchem assays (depositor defined):AID2097, AID2223, AID489010, AID492950]; assay type: functional
T2 sequence (P9WHJ3 whole entry): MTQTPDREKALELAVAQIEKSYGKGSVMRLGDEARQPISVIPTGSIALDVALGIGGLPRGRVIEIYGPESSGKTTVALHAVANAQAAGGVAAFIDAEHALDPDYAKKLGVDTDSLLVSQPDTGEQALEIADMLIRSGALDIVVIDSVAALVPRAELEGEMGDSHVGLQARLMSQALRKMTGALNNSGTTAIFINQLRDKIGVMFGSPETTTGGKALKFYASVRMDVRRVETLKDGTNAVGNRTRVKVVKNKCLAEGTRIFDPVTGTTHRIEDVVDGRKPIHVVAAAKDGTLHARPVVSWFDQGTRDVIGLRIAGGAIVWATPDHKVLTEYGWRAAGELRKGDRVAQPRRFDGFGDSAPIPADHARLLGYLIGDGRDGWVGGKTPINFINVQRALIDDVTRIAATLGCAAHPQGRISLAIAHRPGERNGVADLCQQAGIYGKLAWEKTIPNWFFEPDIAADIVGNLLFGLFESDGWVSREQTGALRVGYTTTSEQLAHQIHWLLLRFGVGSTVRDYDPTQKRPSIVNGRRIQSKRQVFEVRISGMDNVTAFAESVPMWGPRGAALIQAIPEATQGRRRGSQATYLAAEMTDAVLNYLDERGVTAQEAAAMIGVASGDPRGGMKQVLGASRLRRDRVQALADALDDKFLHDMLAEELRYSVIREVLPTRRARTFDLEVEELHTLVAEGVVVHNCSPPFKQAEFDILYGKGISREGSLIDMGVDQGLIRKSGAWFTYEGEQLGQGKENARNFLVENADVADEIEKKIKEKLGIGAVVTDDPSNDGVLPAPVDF

[1] = biological target: T3, Replicative DNA helicase DnaB (Mycobacterium tuberculosis, UniProt P9WMR3); assay: DnaB intein splicing inhibitors, dose response, biochemical, cell-free fluorescence (AID 449749); assay type: functional
T3 sequence (P9WMR3 whole entry): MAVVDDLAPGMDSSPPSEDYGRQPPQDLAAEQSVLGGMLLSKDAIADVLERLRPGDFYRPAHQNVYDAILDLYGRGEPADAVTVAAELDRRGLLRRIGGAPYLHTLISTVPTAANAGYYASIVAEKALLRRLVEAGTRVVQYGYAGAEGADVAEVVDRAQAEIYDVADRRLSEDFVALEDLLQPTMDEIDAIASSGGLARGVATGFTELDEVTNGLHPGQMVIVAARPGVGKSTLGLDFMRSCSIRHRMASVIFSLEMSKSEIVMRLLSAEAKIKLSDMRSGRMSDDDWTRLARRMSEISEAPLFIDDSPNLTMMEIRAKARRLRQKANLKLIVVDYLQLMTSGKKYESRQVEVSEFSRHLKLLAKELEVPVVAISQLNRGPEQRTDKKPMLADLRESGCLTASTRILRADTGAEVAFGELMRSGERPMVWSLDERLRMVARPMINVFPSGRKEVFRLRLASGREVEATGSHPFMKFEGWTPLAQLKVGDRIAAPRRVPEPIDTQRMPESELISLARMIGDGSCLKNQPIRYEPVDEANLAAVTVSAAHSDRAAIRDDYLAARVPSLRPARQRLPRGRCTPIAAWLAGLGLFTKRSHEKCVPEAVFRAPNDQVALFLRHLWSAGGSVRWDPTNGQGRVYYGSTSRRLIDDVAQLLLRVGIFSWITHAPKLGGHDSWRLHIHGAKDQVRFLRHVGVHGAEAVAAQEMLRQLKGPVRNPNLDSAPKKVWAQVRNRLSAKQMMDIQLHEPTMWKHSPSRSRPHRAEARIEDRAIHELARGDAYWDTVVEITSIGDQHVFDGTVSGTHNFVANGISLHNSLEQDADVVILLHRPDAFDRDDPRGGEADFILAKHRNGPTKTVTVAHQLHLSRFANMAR

[2] = biological target: Luciferin 4-monooxygenase (Photinus pyralis, UniProt P08659); assay: inhibition of purified Photinus pyralis luciferase – biochemical, luminescence, dose response (AID 1891)
[3] = Luminescence Cell-Based Dose Confirmation HTS to Identify Inhibitors of Platelet Dense Granule Release. [Related pubchem assays: 1663 (Primary HTS), 1678 (Summary of Project)]; assay type: functional

Luciferin 4-monooxygenase, sequence (P08659 whole entry): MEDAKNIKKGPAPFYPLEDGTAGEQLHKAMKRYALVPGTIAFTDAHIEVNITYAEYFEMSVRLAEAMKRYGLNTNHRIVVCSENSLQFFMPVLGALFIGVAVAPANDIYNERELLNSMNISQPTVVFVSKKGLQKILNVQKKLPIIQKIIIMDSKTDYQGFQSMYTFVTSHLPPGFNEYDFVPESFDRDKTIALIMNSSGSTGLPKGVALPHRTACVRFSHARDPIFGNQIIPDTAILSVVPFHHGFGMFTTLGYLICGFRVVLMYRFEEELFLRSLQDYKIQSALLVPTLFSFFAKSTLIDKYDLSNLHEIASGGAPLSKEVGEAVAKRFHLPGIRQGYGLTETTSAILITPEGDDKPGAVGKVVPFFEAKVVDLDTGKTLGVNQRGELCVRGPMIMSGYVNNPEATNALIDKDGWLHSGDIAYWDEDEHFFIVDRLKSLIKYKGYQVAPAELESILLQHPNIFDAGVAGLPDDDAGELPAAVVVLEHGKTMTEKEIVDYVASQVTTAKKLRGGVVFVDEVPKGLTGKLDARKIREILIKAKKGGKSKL
Cytochrome P450 3A4, sequence (P08684 whole entry): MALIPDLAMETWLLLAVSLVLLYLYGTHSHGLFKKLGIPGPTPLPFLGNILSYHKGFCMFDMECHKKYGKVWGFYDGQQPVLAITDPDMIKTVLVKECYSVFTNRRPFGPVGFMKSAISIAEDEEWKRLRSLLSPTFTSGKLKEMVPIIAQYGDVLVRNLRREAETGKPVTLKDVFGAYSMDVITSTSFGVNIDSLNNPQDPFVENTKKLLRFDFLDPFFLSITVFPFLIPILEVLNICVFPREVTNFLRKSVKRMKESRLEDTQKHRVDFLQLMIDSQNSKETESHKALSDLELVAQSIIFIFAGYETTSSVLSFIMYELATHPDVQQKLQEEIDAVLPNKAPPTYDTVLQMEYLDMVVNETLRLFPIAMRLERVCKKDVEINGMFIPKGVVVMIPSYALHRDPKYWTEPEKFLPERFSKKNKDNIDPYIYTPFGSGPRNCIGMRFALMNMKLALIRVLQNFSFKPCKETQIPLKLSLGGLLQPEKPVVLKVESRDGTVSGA
Cytochrome P450 2C19, sequence (P33261 whole entry): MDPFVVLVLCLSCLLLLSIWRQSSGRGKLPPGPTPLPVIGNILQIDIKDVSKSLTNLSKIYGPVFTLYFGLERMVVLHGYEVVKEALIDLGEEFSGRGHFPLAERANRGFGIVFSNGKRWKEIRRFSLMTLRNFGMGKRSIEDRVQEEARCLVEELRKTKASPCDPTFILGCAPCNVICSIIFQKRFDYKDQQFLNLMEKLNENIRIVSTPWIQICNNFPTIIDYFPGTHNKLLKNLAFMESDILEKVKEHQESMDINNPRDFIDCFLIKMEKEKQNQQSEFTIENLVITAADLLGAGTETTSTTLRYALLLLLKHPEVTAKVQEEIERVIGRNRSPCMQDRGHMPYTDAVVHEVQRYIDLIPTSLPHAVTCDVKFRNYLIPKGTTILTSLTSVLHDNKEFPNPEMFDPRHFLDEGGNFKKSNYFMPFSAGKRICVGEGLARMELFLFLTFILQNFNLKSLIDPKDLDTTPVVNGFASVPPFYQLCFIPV

O=C(Nc1ccccc1)N1CC[C@@]2(CCCN(C(=O)c3cc(C(F)(F)F)cc(C(F)(F)F)c3)C2)C1
AC50 (Cytochrome P450 3A4): 12.6 µM (inconclusive) | AC50 (Cytochrome P450 1A2): 25.1 µM (inconclusive) | AC50 (Cytochrome P450 2C19): inconclusive

Cc1ccc(C2C(C#N)=C(N)Oc3[nH]c(-c4ccccc4)nc32)o1 (stereo not drawn)
EC50 (Protein RecA): 5.11 µM (active) | AC50 [1]: 21.5 µM (active)

COc1cc(C2NC(=O)NC(O)(C(F)(F)F)C2C(=O)c2ccc(Cl)cc2)ccc1O (stereo not drawn)
AC50 (Cytochrome P450 3A4): 15.8 µM (inconclusive) | AC50 (Cytochrome P450 1A2): 39.8 µM (inconclusive) | AC50 (Cytochrome P450 2C19; read-out: AC50): 11.2 µM (inconclusive)

O=C(c1nc2ccc([N+](=O)[O-])cc2nc1O)[C@@H](O)c1ccc2c(c1)OCO2
AC50 (Cytochrome P450 1A2): 3.16 µM (inconclusive)

COc1ncc2nc(-c3cc(F)cc(F)c3)c(=O)n(C[C@H]3CCCO3)c2n1
AC50 (Cytochrome P450 3A4): 25.1 µM (inconclusive) | AC50 (Cytochrome P450 2C19; read-out: AC50): 31.6 µM (inconclusive)

CCOC1OC2C(CO)OC(n3cnc4c(N)ncnc43)C2O1 (stereo not drawn)
EC50 [2]: > 112 µM (not active) | EC50 [3]: 6.37 µM (active)

O=c1c(-c2ccc(Cl)cc2)[n+]([O-])c2ccccc2n1OCc1ccccn1
AC50 (Cytochrome P450 3A4): 7.08 µM (inconclusive) | AC50 (Cytochrome P450 1A2): 1.26 µM (inconclusive) | AC50 (Cytochrome P450 2C19; read-out: AC50): 2.82 µM (inconclusive)

CC1=C(C(=O)OCc2ccccc2)C(c2ccc(Cl)cc2)NC(=O)N1CCCCCC(=O)O (stereo not drawn)
AC50 (Cytochrome P450 3A4): 10 µM (inconclusive) | AC50 (Cytochrome P450 2C19; read-out: AC50): 39.8 µM (inconclusive)

[O-][n+]1c2c(nc3c1-c1ccccc1C3O)CCCC2 (stereo not drawn)
EC50 (Protein RecA): 18.6 µM (active) | AC50 [1]: 19.4 µM (active)

COC(=O)c1sc(N)c(C(=O)OC)c1Cn1ncc(Cl)c(Cl)c1=O
EC50 (Protein RecA): 0.541 µM (active) | AC50 [1]: 2.66 µM (active)

O=C(Oc1ccc(-n2cnnn2)cc1)c1ccco1
EC50 (Protein RecA): 12.7 µM (active) | AC50 [1]: 15.3 µM (active)

O=C(NC(c1ccccc1)c1ccccc1)c1ccc(O)nn1
EC50 [2]: > 112 µM (not active) | EC50 [3]: 5.32 µM (active)

CCN(CC)C(=O)CSc1nnc(-c2ccco2)n1N
AC50 (Cytochrome P450 1A2): 17.8 µM (inconclusive)

O=C(Cn1nc(C(=O)O)c2ccccc2c1=O)NCC1CCCO1 (stereo not drawn)
EC50 [2]: > 112 µM (not active) | EC50 [3]: > 112 µM (not active)

COc1ccccc1CC(=O)NNC(=O)CN(C)S(=O)(=O)c1ccc(Cl)cc1
EC50 [2]: > 112 µM (not active) | EC50 [3]: > 112 µM (not active)

Cc1ccc(Oc2nc3ccccn3c(=O)c2/C=C(\C#N)C(=O)NC2CCS(=O)(=O)C2)cc1 (stereo not drawn)
EC50 [2]: > 112 µM (not active) | EC50 [3]: 8.55 µM (active)

CC(=O)NS(=O)(=O)c1ccc(NC(=S)NC(=O)C(C)(C)C)cc1
AC50 (Cytochrome P450 2C19): inconclusive

CC(=O)c1ccc(NC(S)=NC(C)CCc2ccccc2)cc1 (stereo not drawn)
EC50 [2]: > 112 µM (not active) | EC50 [3]: > 112 µM (not active)

COc1ccc(OC)c(C2C(C#N)=C(N)Oc3c2c(C)nn3-c2cccc(Cl)c2)c1 (stereo not drawn)
EC50 (Protein RecA): 6.94 µM (active) | AC50 [1]: > 380 µM (inactive)
